Data taken from patent publication US7622598B2, “Phenol derivatives and antitrypanosoma preventive/therapeutic agent comprising the same as active ingredient” (aRigen Pharmaceuticals, Inc., priority 2003, dated 2009).
Where two headings read alike, the source gives them in different places.

What was measured:
[1] = biological target: cyanide resistant quinol enzyme of Trypanosoma (Trypanosoma brucei brucei, UniProt Q26710); test: Respiration inhibition on the cyanide resistant quinol enzyme of Trypanosoma (recombinant enzyme); type: biochemical
Description: Antitrypanosoma Action (IC50)
The respiration inhibition effect of the novel phenol derivatives on the cyanide resistant quinol enzyme of Trypanosoma was examined with the use of a recombinant enzyme.

Trypanosma brucei brucei = test: Antitrypanosoma action in 24 h culture, minimum effective concentration, with or without glycerin; type: cell-based, Trypanosoma brucei brucei; conditions: for Minimum Effective Concentration, Presence of Glycerin: 5 mM of glycerin; for minimal effective concentration: Trypanosoma brucei, read-out: Minimum Effective Concentration, Absence of Glycerin
Description: With the use of a 96-well culture plate, each agent was adjusted to 10 mM with DMSO, and 5×10^5/ml of Trypanosma brucei brucei was added and cultured at 37° C. for 24 hours, and the minimum effective concentration was calculated.
The above described culture was conducted with the addition of 5 mM of glycerin under the same conditions as described above and observed.

[2] = tested on: glycerol-3-phosphate-dependent respiration in the mitochondrial specimen of Trypanosoma brucei brucei; conditions: earlier filing JP H09-165332; cited from earlier work
[3] = tested on: glycerol-3-phosphate-dependent respiration in the mitochondrial specimen of Trypanosoma brucei brucei; test: Inhibition of glycerol-3-phosphate-dependent respiration in mitochondrial specimen; type: biochemical; conditions: mitochondrial specimen from T. brucei brucei multiplied in rat bloodstream
Description: The inhibition effect of the novel halogen-containing phenol derivatives having an alkyl side chain on the glycerol-3-phosphate-dependent respiration in the mitochondrial specimen prepared by mechanically crushing the bodies of Trypanosoma brucei brucei multiplied in the rat bloodstream with glass beads and subjecting the crushed bodies to centrifugal fractionation was examined.

[4] = 5×10^5/ml, 37° C., 24 hours, no glycerin

Sequence of cyanide resistant quinol enzyme of Trypanosoma (Q26710 whole entry): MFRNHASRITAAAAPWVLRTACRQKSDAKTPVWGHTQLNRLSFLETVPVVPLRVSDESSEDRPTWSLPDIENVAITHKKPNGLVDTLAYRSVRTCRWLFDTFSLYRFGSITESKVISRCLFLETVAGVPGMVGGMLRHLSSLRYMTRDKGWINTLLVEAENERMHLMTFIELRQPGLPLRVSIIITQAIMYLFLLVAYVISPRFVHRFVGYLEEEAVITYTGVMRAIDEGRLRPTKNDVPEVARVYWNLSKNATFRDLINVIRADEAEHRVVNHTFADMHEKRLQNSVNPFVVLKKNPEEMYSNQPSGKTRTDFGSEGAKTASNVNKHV

| SMILES | melting point | IC50 [1] | Minimum Effective Concentration, Presence of Glycerin (Trypanosma brucei brucei; 5×10^5/ml, 37° C., 24 hours) | minimal effective concentration (Trypanosma brucei brucei; [4]) | further results |
| --- | --- | --- | --- | --- | --- |
| CCCCCCCCCCCC(O)c1c(O)c(Cl)cc(C(=O)OC)c1O (centres unmarked) | 96 to 97 °C |  |  |  |  |
| Cc1c(Cl)c(O)c(CCC(C)CCCC(C)[C@@H]2CC(=O)C(C)(C)O2)c(O)c1C=O (mixture of isomers) [compound 212, 3-Chloro-4,6-dihydroxy-2-methyl-5-[3-methyl-7-(tetrahydro-5,5-dimethyl-4-oxo-2-furanyl)octyl]-benzaldehyde] |  | 0.3 nM |  |  |  |
| Cc1c(Cl)c(O)c(CCC(C)CCCC(C)C)c(O)c1C=O (racemic) [dl-218, 3-Chloro-5-(3,7-dimethyloctyl)-4,6-dihydroxy-2-methylbenzaldehyde] | 66 to 67 °C | 0.4 nM |  |  |  |
| Cc1c(Cl)c(O)c(/C=C/C(C)CCCC(C)C)c(O)c1C=O (racemic) [dl-223, 3-Chloro-5-(3,7-dimethyl-1-octenyl)-4,6-dihydroxy-2-methylbenzaldehyde] |  | 1.1 nM |  |  |  |
| CCCCCCCCC(O)c1c(O)cc(C)c(C=O)c1O (centres unmarked) [195-9, 2,4-Dihydroxy-3-(1-hydroxynonyl)-6-methylbenzaldehyde] |  | 30 nM | 25 µM | 25 µM |  |
| CCCCCCCCCC(O)c1c(O)cc(C)c(C=O)c1O (centres unmarked) [195-10, 2,4-Dihydroxy-3-(1-hydroxydecyl)-6-methylbenzaldehyde] |  | 35 nM | 25 µM | 25 µM |  |
| CCCCCCCCCCCC(O)c1c(O)cc(C)c(C=O)c1O (centres unmarked) [195-12, 2,4-Dihydroxy-3-(1-hydroxydodecyl)-6-methylbenzaldehyde] |  | 40 nM | 25 µM | 25 µM |  |
| CCCCCCCCC(O)c1c(O)c(Cl)c(C)c(C=O)c1O (centres unmarked) [196-9, 5-Chloro-2,4-dihydroxy-3-(1-hydroxynonyl)-6-methylbenzaldehyde] |  | 0.5 nM | 0.8 µM | 50 µM |  |
| CCCCCCCCCC(O)c1c(O)c(Cl)c(C)c(C=O)c1O (centres unmarked) [196-10, 5-Chloro-2,4-dihydroxy-3-(1-hydroxydecyl)-6-methylbenzaldehyde] |  | 0.6 nM | 0.8 µM | 100 µM |  |
| CCCCCCCCCCCC(O)c1c(O)c(Cl)c(C)c(C=O)c1O (centres unmarked) [196-12, 5-Chloro-2,4-dihydroxy-3-(1-hydroxydodecyl)-6-methylbenzaldehyde] |  | 0.65 nM | 1.5 µM | 100 µM |  |
| CCCCC/C=C/c1c(O)c(Cl)c(C)c(C=O)c1O [200-7, 5-Chloro-3-(1-heptenyl)-2,4-dihydroxy-6-methylbenzaldehyde] | 96 to 97 °C |  |  |  |  |
| CCCCCCC/C=C/c1c(O)c(Cl)c(C)c(C=O)c1O [200-9, 5-chloro-2,4-dihydroxy-6-methyl-3-(1-nonenyl)benzaldehyde] | 79.5 to 80.5 °C | 0.4 nM | 0.8 µM | 100 µM |  |
| CCCCCCCC/C=C/c1c(O)c(Cl)c(C)c(C=O)c1O [200-10, 5-Chloro-3-(1-decenyl)-2,4-dihydroxy-6-methylbenzaldehyde] | 83 to 84 °C | 0.45 nM | 0.8 µM | 100 µM |  |
| CCCCCCCCCC/C=C/c1c(O)c(Cl)c(C)c(C=O)c1O [200-12, 5-Chloro-3-(1-dodecenyl)-2,4-dihydroxy-6-methylbenzaldehyde] |  | 0.5 nM | 1.5 µM | 100 µM |  |
| CCCCCCCCCCCC(O)c1c(O)ccc(C=O)c1O (centres unmarked) [201-12, 2,4-Dihydroxy-3-(1-hydroxydodecyl)benzaldehyde] |  | 300 nM |  |  |  |
| CCCCCCCCCCCC(O)c1c(O)c(Cl)cc(C=O)c1O (centres unmarked) [202-12, 5-Chloro-2,4-dihydroxy-3-(1-hydroxydodecyl)benzaldehyde] | 78 to 79 °C | 1.5 nM |  |  |  |
| CCCCCCCCCC/C=C/c1c(O)c(Cl)cc(C=O)c1O [203-12, 5-Chloro-3-(1-dodecenyl)-2,4-dihydroxybenzaldehyde] | 84 to 85 °C | 0.5 nM |  |  |  |
| CCCCCCCCCc1c(O)c(Cl)c(C)c(C=O)c1O [215-9, 3-Chloro-4,6-dihydroxy-2-methyl-5-nonylbenzaldehyde] | 89 to 90 °C | 0.21 nM |  |  |  |
| C/C(=C\Cc1c(O)c(Cl)c(C)c(C=O)c1O)CC/C=C(\C)[C@@H]1CC(=O)C(C)(C)O1 [AF, ascofuranone, reference compound] |  |  | 0.2 µM |  | inhibition of the glycerol-3-phosphate oxidation system of trypanosome [2]: very low concentration of the order of nM; minimal effective concentration (Trypanosma brucei brucei; 24 h): 200 µM |
| CCCC[C@H]1C(=O)O[C@H](C)[C@H](NC(=O)c2cccc(NC=O)c2O)C(=O)O[C@@H](C)[C@@H]1OC(=O)CC(C)C [antimycin A3] |  |  |  |  | absolute amounts of 50% inhibition [3]: 48,600 pmol/mg protein |
| CCCCCCCC/C=C/c1c(O)ccc(C=O)c1O [compound 197, 3-(1-Decenyl)-2,4-dihydroxybenzaldehyde] |  | 120 nM | 50 µM | 50 µM |  |
| CCCCCCCCCC/C=C/c1c(O)cc(C)c(C=O)c1O [compound 198, 3-(1-Dodecenyl)-2,4-dihydroxy-6-methylbenzaldehyde] | 103 to 105 °C | 16 nM | 50 µM | 50 µM |  |
| COc1c(Cl)c(C)c(C=O)c(O)c1C/C=C(\C)CC/C=C(\C)[C@@H]1CC(=O)C(C)(C)O1 [compound 211, 3-Chloro-6-hydroxy-4-methoxy-2-methyl-5-[(E,E)-3-methyl-7-(tetrahydro-5,5-dimethyl-4-oxo-2-furanyl)-2,6-octadienyl]benzaldehyde] |  | 4 nM |  |  |  |
| C/C(=C\Cc1c(O)c(Cl)c(C)c(/C=N/O)c1O)CC/C=C(\C)[C@@H]1CC(=O)C(C)(C)O1 [compound 213, 5-[(E,E)-7-(3-Chloro-2,6-dihydroxy-5-hydroxyiminomethyl-4-methylphenyl)-1,5-dimethyl-1,5-heptadienyl]-4,5-dihydro-2,2-dimethyl-3(2H)-furanone] | 102 to 103 °C | 28 nM |  |  |  |
| CC(C)=CCCC(C)CC(O)c1c(O)c(Cl)c(C)c(C=O)c1O (centres unmarked) [compound 220, 3-chloro-4,6-dihydroxy-5-(1-hydroxy-3,7-dimethyl-6-octenyl)-2-methylbenzaldehyde] |  | 20 nM |  |  |  |
| CO/C(=C/C(N)=O)[C@H](C)[C@H](/C=C/c1csc(-c2csc([C@@H](C)/C=C/C=C/C(C)C)n2)n1)OC [myxothiazol] |  |  |  |  | absolute amounts of 50% inhibition [3]: 21,500 pmol/mg protein |
| C/C=C(C)/C=C/C=C/[C@H](OC)[C@@H](C)[C@@H](OC)[C@@H](C)CCc1oc2c(O)c(OC)cc(OC)c2c(=O)c1C [stigmatellin] |  |  |  |  | absolute amounts of 50% inhibition [3]: 18,600 pmol/mg protein |
